What was measured:
[1] = system: Human liver cancer-derived cells (HepG2) cell aggregates; assay: Lipid droplet formation in HepG2 cell aggregates, refractive index distribution measuring method A2 (Example 1); type: cell-based; conditions: sodium oleate 0.5 mM, one day
Procedure: Human liver cancer-derived cells (HepG2) were cultured for one day in a cell culture vessel (“EZSPHERE” manufactured by AGC-Techno Glass Co., Ltd.) having low-cell-adhesive compartments to prepare cell aggregates. The low-cell-adhesive compartments are provided with a low-protein-adhesive coat. Cell aggregates were formed in a DMEM medium containing 10% fetal bovine serum in the low-cell-adhesive compartments. A portion of the cell aggregates was cultured for one day in a DMEM medium containing 1% fatty acid-free bovine serum albumin instead of fetal bovine serum, with addition of sodium oleate to a final concentration of 0.5 mM, to induce formation of lipid droplets. The remaining portion of the cell aggregates was cultured for an additional day in a DMEM medium containing 10% fetal bovine serum without the addition of oleic acid (control). […] In the obtained refractive index distribution data, a region where the refractive index (n) was greater than 1.337 was determined as a cell aggregate region. […] A region having a refractive index (n) of greater than 1.375 was determined as a lipid droplet region. The area of the lipid droplet region present in the cell aggregate region of interest was measured.

[2] = system: HepG2 cell aggregate (fatty liver model); assay: Lipid droplet volume ratio by distance from center of gravity in HepG2 cell aggregates, measuring method C (Example 2); type: cell-based, Human
Procedure: Preparation of cell aggregates, homogenization, and induction of lipid droplet formation were carried out in the same manner as in Example 1. The refractive index distribution data was evaluated in accordance with Embodiment T3 (FIG. 42). The refractive index distribution data was obtained by the refractive index distribution measuring method C. In the obtained refractive index distribution data, the center of gravity C was calculated, and the refractive index distribution data was evaluated based on distances from the center of gravity C. It was divided into concentric circles at intervals of 2.5 μm from the center of gravity C, and the ratio of the volume of lipid droplets present therein was calculated. The lipid droplet region was set as a region having a refractive index n>1.37, cell region of spheroid as a region having a refractive index n>1.34 and a medium region as a region having a refractive index n≤1.34 and the calculation was carried out. The results of the cell aggregate of the oleic acid-treated HepG2 (fatty liver model) and the control (without oleic acid) were compared.

## CCCCCCCC/C=C\CCCCCCCC(=O)O [oleic acid]
[1]; FIG. 41B
  formation of lipid droplets (structures with high refractive index): induced the formation of lipid droplets
[1]; lipid droplet region n>1.375, aggregates of maximum diameter 50 to 100 μm
  area of the lipid droplet region per cell aggregate relative to control (without oleic acid): 2.75 times
[2]; concentric circles at 2.5 μm intervals from center of gravity C, lipid droplet region n>1.37
  ratio of the volume of lipid droplets versus control (without oleic acid): greater ratio of the volume of lipid droplets
[2]; oleic acid-treated and control alike
  distance from the center of gravity where many lipid droplets exist: about 20 μm

Reference: patent publication US20250052678A1, “EVALUATION METHOD, EVALUATION DEVICE, AND INFORMATION PROCESSING PROGRAM” (HAMAMATSU PHOTONICS K.K., priority 2021, published 2025)
